Test results: patent publication US11358952B2, “Substituted 4-aminoisoindoline-1,3-dione compounds, compositions thereof, and methods of treatment therewith” (Celgene Corporation, priority 2018, dated 2022)

What follows are compounds tested on SU-DHL-4 cell line (assay: SU-DHL-4 cell proliferation assay (Cell Titer-Glo viability)). Conditions: Homo sapiens; cell viability IC50 activity level, DLBCL cell line SU-DHL-4, 120 hours post-treatment; read-out: SU-DHL-4 Act.
Assay type: cell-based
Description: SU-DHL-4 Cell Proliferation Assay.
The following is an example of an assay that can be used to determine the anti-proliferative activity of Isoindolinedione Compounds in a DLBCL cell line, for example, the SU-DHL-4 cell line (Deutsche Sammlung von Mikroorganismen and Zellkulturen GmbH [DSMZ]: catalogue number ACC-495) at 120 hours post-treatment. The seeding density for SU-DHL-4 can be optimized to ensure assay linearity in 1536-well plates.
Increasing concentrations of test compounds (0.5 nM to 10 μM) were spotted in a 20-point dilution fashion (unevenly spaced data points) via an acoustic dispenser (EDC ATS-100) into an empty 1536-well plate. The DMSO concentration was kept constant for a final assay concentration of 0.1% DMSO. Prior to testing, SU-DHL-4 cells were grown in RPMI-1640 (Roswell Park Memorial Institute—1640) medium with 10% FBS (fetal bovine serum: HyClone) and expanded in culture flasks to provide sufficient amounts of starting material. Cells were then diluted to 500 cells per well in a 5 μL volume, and added directly to the compound-spotted 1536-well plates. Cells were allowed to grow for 120 hours in 5% CO2 at 37° C. At the time when exposure of cells to compound began (to), initial viable cell number was assessed via Cell Titer-Glo® Luminescent Cell Viability Assay at a 1 vol:2 vol ratio according to manufacturer's instructions (Promega Corporation, Madison, Wis.) by quantifying the level of luminescence generated by adenosine-5′-triphosphate (ATP) present in viable cells. After 120 hours, cell viability of the treated cells was assessed via Cell Titer-Gb® and read for luminescence. All growth inhibition curves were processed and evaluated using Activity Base (IDBS, Alameda, Calif.). Cell viability IC50 values were calculated using a four parameter logistic model (sigmoidal dose-response model): y=(A+((B−A)/(1+((C/x)^D)))) wherein: A=YMin B=YMax C=EC50 D=Hill slope IC50=the concentration of the compound when Y=50% of DMSO control Y=cell viability measured as luminescence unit, and x=concentration of compound.

SMILES	IC50 [nM]
COC1CC2CCC(C1)N2Cc1ccc(CNc2cccc3c2C(=O)N(C2CCC(=O)NC2=O)C3=O)cc1 [Cpd 35, 2-(2,6-dioxopiperidin-3-yl)-4-(4-(((1R,3r,5S)-3-methoxy-8-azabicyclo[3.2.1]octan-8-yl)methyl)benzylamino)isoindoline-1,3-dione]	751 to 1000
CC(C)(C)OC1CCN(Cc2ccc(CNc3cccc4c3C(=O)N(C3CCC(=O)NC3=O)C4=O)cc2)CC1 (centres unmarked) [Cpd 38, 4-(4-((4-tert-butoxypiperidin-1-yl)methyl)benzylamino)-2-(2,6-dioxopiperidin-3-yl)isoindoline-1,3-dione]	< 200
Cc1cc(CNc2cccc3c2C(=O)N(C2CCC(=O)NC2=O)C3=O)ccc1CN1CCC(C(C)C)CC1 (centres unmarked) [Cpd 40, 2-(2,6-dioxopiperidin-3-yl)-4-(4-((4-isopropylpiperidin-1-yl)methyl)-3-methylbenzylamino)isoindoline-1,3-dione]	< 200
Cc1cc(CNc2cccc3c2C(=O)N(C2CCC(=O)NC2=O)C3=O)ccc1CN1CCC(C)(C)CC1 (centres unmarked) [Cpd 42, 4-(4-((4,4-dimethylpiperidin-1-yl)methyl)-3-methylbenzylamino)-2-(2,6-dioxopiperidin-3-yl)isoindoline-1,3-dione]	< 200
Cc1cc(CNc2cccc3c2C(=O)N(C2CCC(=O)NC2=O)C3=O)ccc1CN1CCC(C(C)(C)C)CC1 (centres unmarked) [Cpd 43, 4-(4-((4-tert-butylpiperidin-1-yl)methyl)-3-methylbenzylamino)-2-(2,6-dioxopiperidin-3-yl)isoindoline-1,3-dione]	< 200
Cc1cc(CNc2cccc3c2C(=O)N(C2CCC(=O)NC2=O)C3=O)ccc1CN1CCC2(CC1)CC2 (centres unmarked) [Cpd 44, 4-(4-(6-azaspiro[2.5]octan-6-ylmethyl)-3-methylbenzylamino)-2-(2,6-dioxopiperidin-3-yl)isoindoline-1,3-dione]	< 200
Cc1cc(CNc2cccc3c2C(=O)N(C2CCC(=O)NC2=O)C3=O)ccc1CN1CCC(C(F)(F)F)CC1 (centres unmarked) [Cpd 45, 2-(2,6-dioxopiperidin-3-yl)-4-(3-methyl-4-((4-(trifluoromethyl)piperidin-1-yl)methyl)benzylamino)isoindoline-1,3-dione]	< 200
Cc1cc(CNc2cccc3c2C(=O)N(C2CCC(=O)NC2=O)C3=O)ccc1CN1CCC2(CCC2)CC1 (centres unmarked) [Cpd 46, 4-(4-(7-azaspiro[3.5]nonan-7-ylmethyl)-3-methylbenzylamino)-2-(2,6-dioxopiperidin-3-yl)isoindoline-1,3-dione]	< 200
Cc1cc(CNc2cccc3c2C(=O)N(C2CCC(=O)NC2=O)C3=O)ccc1CN1CCC2(CC1)CC(F)(F)C2 (centres unmarked) [Cpd 47, 4-(4-((2,2-difluoro-7-azaspiro[3.5]nonan-7-yl)methyl)-3-methylbenzylamino)-2-(2,6-dioxopiperidin-3-yl)isoindoline-1,3-dione]	< 200
Cc1cc(CNc2cccc3c2C(=O)N(C2CCC(=O)NC2=O)C3=O)ccc1CN1CCN(c2ccc(C(N)=O)nc2)CC1 (centres unmarked) [Cpd 49, 5-(4-(4-((2-(2,6-dioxopiperidin-3-yl)-1,3-dioxoisoindolin-4-ylamino)methyl)-2-methylbenzyl)piperazin-1-yl)picolinamide]	< 200
Cc1cc(CNc2cccc3c2C(=O)N(C2CCC(=O)NC2=O)C3=O)ccc1CN1CCN(c2ccc(F)cc2F)CC1 (centres unmarked) [Cpd 50, 4-(4-((4-(2,4-difluorophenyl)piperazin-1-yl)methyl)-3-methylbenzylamino)-2-(2,6-dioxopiperidin-3-yl)isoindoline-1,3-dione]	200 to 500

Second part, the compound after the results:

IC50 [nM]	SMILES
< 200	N#Cc1ccc(N2CCN(Cc3ccc(CNc4cccc5c4C(=O)N(C4CCC(=O)NC4=O)C5=O)cc3)CC2)c(F)c1 (centres unmarked) [Cpd 28, 4-(4-(4-((2-(2,6-dioxopiperidin-3-yl)-1,3-dioxoisoindolin-4-ylamino)methyl)benzyl)piperazin-1-yl)-3-fluorobenzonitrile]
200 to 500	N#Cc1ccc(N2CCN(Cc3ccc(CNc4cccc5c4C(=O)N(C4CCC(=O)NC4=O)C5=O)cc3)CC2)nc1 (centres unmarked) [Cpd 29, 6-(4-(4-((2-(2,6-dioxopiperidin-3-yl)-1,3-dioxoisoindolin-4-ylamino)methyl)benzyl)piperazin-1-yl)nicotinonitrile]
< 200	O=C1CCC(N2C(=O)c3cccc(NCc4ccc(CN5CCN(c6ncccc6F)CC5)cc4)c3C2=O)C(=O)N1 (centres unmarked) [Cpd 30, 2-(2,6-dioxopiperidin-3-yl)-4-(4-((4-(3-fluoropyridin-2-yl)piperazin-1-yl)methyl)benzylamino)isoindoline-1,3-dione]
200 to 500	O=C1CCC(N2C(=O)c3cccc(NCc4ccc(CN5CCC(c6ccccn6)CC5)cc4)c3C2=O)C(=O)N1 (centres unmarked) [Cpd 31, 2-(2,6-dioxopiperidin-3-yl)-4-(4-((4-(pyridin-2-yl)piperidin-1-yl)methyl)benzylamino)isoindoline-1,3-dione]
200 to 500	O=C1CCC(N2C(=O)c3cccc(NCc4ccc(CN5CCN(c6ccc(F)cn6)CC5)cc4)c3C2=O)C(=O)N1 (centres unmarked) [Cpd 32, 2-(2,6-dioxopiperidin-3-yl)-4-(4-((4-(5-fluoropyridin-2-yl)piperazin-1-yl)methyl)benzylamino)isoindoline-1,3-dione]
200 to 500	C[C@@H]1CN(c2ccc(Cl)cc2)CCN1Cc1ccc(CNc2cccc3c2C(=O)N(C2CCC(=O)NC2=O)C3=O)cc1 (stereo partly drawn) [Cpd 33, 4-(4-(((R)-4-(4-chlorophenyl)-2-methylpiperazin-1-yl)methyl)benzylamino)-2-(2,6-dioxopiperidin-3-yl)isoindoline-1,3-dione]
751 to 1000	CC1(C)CN(c2ccc(Cl)cc2)CCN1Cc1ccc(CNc2cccc3c2C(=O)N(C2CCC(=O)NC2=O)C3=O)cc1 (centres unmarked) [Cpd 34, 4-(4-((4-(4-chlorophenyl)-2,2-dimethylpiperazin-1-yl)methyl)benzylamino)-2-(2,6-dioxopiperidin-3-yl)isoindoline-1,3-dione]
200 to 500	CC1(C)CCN(Cc2ccc(CNc3cccc4c3C(=O)N(C3CCC(=O)NC3=O)C4=O)cc2)CC1 (centres unmarked) [Cpd 36, 4-(4-((4,4-dimethylpiperidin-1-yl)methyl)benzylamino)-2-(2,6-dioxopiperidin-3-yl)isoindoline-1,3-dione]
< 200	CC(C)(C)C1CCN(Cc2ccc(CNc3cccc4c3C(=O)N(C3CCC(=O)NC3=O)C4=O)cc2)CC1 (centres unmarked) [Cpd 37, 4-(4-((4-tert-butylpiperidin-1-yl)methyl)benzylamino)-2-(2,6-dioxopiperidin-3-yl)isoindoline-1,3-dione]
< 200	O=C1CCC(N2C(=O)c3cccc(NCc4ccc(CN5CC6(CCCC6)C5)cc4)c3C2=O)C(=O)N1 (centres unmarked) [Cpd 39, 4-(4-(2-azaspiro[3.4]octan-2-ylmethyl)benzylamino)-2-(2,6-dioxopiperidin-3-yl)isoindoline-1,3-dione]
< 200	CCC1CCN(Cc2ccc(CNc3cccc4c3C(=O)N(C3CCC(=O)NC3=O)C4=O)cc2C)CC1 (centres unmarked) [Cpd 41, 2-(2,6-dioxopiperidin-3-yl)-4-(4-((4-ethylpiperidin-1-yl)methyl)-3-methylbenzylamino)isoindoline-1,3-dione]
200 to 500	Cc1cc(CNc2cccc3c2C(=O)N(C2CCC(=O)NC2=O)C3=O)ccc1CN1CCC(C(F)F)CC1 (centres unmarked) [Cpd 48, 4-(4-((4-(difluoromethyl)piperidin-1-yl)methyl)-3-methylbenzylamino)-2-(2,6-dioxopiperidin-3-yl)isoindoline-1,3-dione]
